This passage reports IC50 results from patent publication US10328060B2, “Certain protein kinase inhibitors” (Shanghai Fochon Pharmaceutical Co., Ltd., priority 2014, dated 2019).

One assay has as its system SU-DHL-6 cell. As to the kind of experiment: SU-DHL-6 cell proliferation assay (MTS). The note with it: SU-DHL-6 cells, 48 h. Format: cell-based. The procedure:
To investigate whether a compound is able to inhibit the activity of PI3K in cells, a mechanism-based assay using SU-DHL-6 cell (ATCC number: CRL 2959) was developed. In this assay, inhibition of PI3K-6 was detected by the inhibition of SUDHL-6 cells proliferation. SU-DHL-6 cells were cultured in culture flasks to 40-80% confluence in RPMI-1640 plus 10% fetal bovine serum. Cells were collected and plated onto 96-well-plates at 30000/well. Plates were incubated overnight at 37° C., with 5% CO2 to adhere. Compounds were added to the plates. Final compound concentrations were […], 123.5, 41.2, 13.7, 4.6 and 1.5 nM. Place plates at 37° C., with 5% CO2 for 48 h. After removing the medium, 20 μl MTS/100 μl medium mixture solution were added to each well and incubate the plates for exactly 2 hours. Stop the reaction by adding 25 μl 10% SDS per well. Measure absorbance at 490 nm and 650 nm (reference wavelength). IC50 was calculated using GraphPad Prism 5.0.

The subject of a further assay is WSU-NHL. Nature of the assay: WSU-NHL cell viability assay (CellTiter-Glo). Format: cell-based. The settings on record: WSU-NHL cells, 48 h. The procedure:
The cancer cell line WSU-NHL (DSMZ number: ACC 58) was maintained in RPMI-1640 medium with 10% FBS, at 37° C. in an atmosphere of 5% CO2. The tumor cells were routinely sub-cultured twice weekly by trypsin-EDTA treatment. The cells growing in an exponential growth phase were harvested, counted, and planted in 96-well plated by 5000 cells/well. After 24 hours' culture, the series diluted test articles were added into wells, then return the assay plate into the incubator and continue culture for 48 h. At the ending point of incubation, the assay plates were detected by Promega CellTiter-Glo Luminescent Cell Viability Assay Kit (Promege 7572), and the luminescence record of each well was read by the 2104 EnVision plate reader. The data were interpreted by GraphPad Prism5 software.
(In general: ATP-based viability assays read luminescence as a measure of living cells.)

Regarding `CCC(Nc1ncnc2[nH]cnc12)c1cc2scc(C)n2c(=O)c1-c1cccc(F)c1` (centres unmarked) [Example 11, 7-(1((9H-purin-6-yl)amino)propyl)-6-(3-fluorophenyl)-3-methyl-5H-thiazolo[3,2-a]pyridin-5-one], half-maximal inhibition with SU-DHL-6 cell (Homo sapiens) (IC50) required 12 nM.

As for `CCC(Nc1ncnc2[nH]cnc12)c1cc2scc(C)n2c(=O)c1-c1ccccc1` (centres unmarked) [Example 2, 7-(1-(9H-purin-6-ylamino)propyl)-3-methyl-6-phenyl-5H-thiazolo[3,2-a]pyridin-5-one], in the assay on SU-DHL-6 cell (Homo sapiens), the concentration for half-maximal inhibition (IC50) was 60 nM.

Take `O=c1c(-c2ccccc2)c(C(Nc2ncnc3[nH]cnc23)C2CC2)cc2scc(Cl)n12` (centres unmarked) [Example 21, 7-(((9H-purin-6-yl)amino)(cyclopropyl)-methyl)-3-chloro-6-phenyl-5H-thiazolo-[3,2-a]pyridin-5-one]: the results for the IC50 with WSU-NHL (Homo sapiens) and in the assay with SU-DHL-6 cell (Homo sapiens) were 20 nM and 27 nM, respectively.

In the assay with SU-DHL-6 cell (Homo sapiens), `Cc1csc2cc(C(C)Nc3ncnc4[nH]cnc34)c(-c3ccc(F)cc3)c(=O)n12` (centres unmarked) [Example 5, 7-(1-((9H-purin-6-yl)amino)ethyl)-6-(4-fluorophenyl)-3-methyl-5H-thiazolo[3,2-a]pyridin-5-one] gave an IC50 of 72 nM.

Turning to `Cc1nc(N)nc(NC(C)c2cc3scc(Cl)n3c(=O)c2-c2cccc(F)c2)c1C#N` (centres unmarked) [Example 27, 2-amino-4-((1-(3-chloro-6-(3-fluorophenyl)-5-oxo-5H-thiazolo[3,2-a]pyridin-7-yl)ethyl)amino)-6-methylpyrimidine-5-carbonitrile], the IC50 in the assay with WSU-NHL (Homo sapiens) is less than 9 nM.

For `CCC(Nc1ncnc2[nH]cnc12)c1cc2scc(C(F)(F)F)n2c(=O)c1-c1cccc(F)c1` (centres unmarked) [Example 17, 7-(1-((9H-purin-6-yl)amino)propyl)-6-(3-fluorophenyl)-3-(trifluoromethyl)-5H-thiazolo[3,2-a]pyridin-5-one], the IC50 in the assay with SU-DHL-6 cell (Homo sapiens) stood at 85 nM.

Turning to `CCC(Nc1ncnc2[nH]cnc12)c1cc2scc(C)n2c(=O)c1-c1ccccc1F` (stereo not drawn) [Example 10, 7-(l-((9H-purin-6-yl)amino)propyl)-6-(2-fluorophenyl)-3-methyl-5H-thiazolo[3,2-a]pyridin-5-one], in the assay on SU-DHL-6 cell (Homo sapiens), the half-maximal inhibitory concentration (IC50) turned out to be 28 nM.

Turning to `Cc1nc(N)nc(NC(C)c2cc3scc(C)n3c(=O)c2-c2ccccc2)c1C#N` (centres unmarked) [Example 26, 2-amino-4-methyl-6-((1-(3-methyl-5-oxo-6-phenyl-5H-thiazolo[3,2-a]pyridin-7-yl)ethyl)amino)pyrimidine-5-carbonitrile], the IC50 in the assay on WSU-NHL (Homo sapiens) was less than 9 nM.

In the case of `CC(Nc1ncnc2[nH]cnc12)c1cc2scc(Cl)n2c(=O)c1-c1ccccc1` (centres unmarked) [Example 14, 7-(1-((9H-purin-6-yl)amino)ethyl)-3-chloro-6-phenyl-5H-thiazolo[3,2-a]-pyridin-5-one], the IC50 in the assay with WSU-NHL (Homo sapiens) stood at 49 nM; in the assay with SU-DHL-6 cell (Homo sapiens) it was 8.5 nM.

For `CC(Nc1ncnc2[nH]cnc12)c1cc2ccccn2c(=O)c1-c1ccccc1` (centres unmarked) [Example 3, 2-(1-(9H-purin-6-ylamino)ethyl)-3-phenyl-4H-quinolizin-4-one], in the assay with SU-DHL-6 cell (Homo sapiens), the midpoint of inhibition, the IC50, lay at 713 nM.

As for `O=c1c(-c2cccc(F)c2)c(C(Nc2ncnc3[nH]cnc23)C2CC2)cc2scc(Cl)n12` (centres unmarked) [Example 20, 7-(((9H-purin-6-yl)amino)(cyclopropyl)methyl)-3-chloro-6-(3-fluorophenyl)-5H-thiazolo[3,2-a]pyridin-5-one], the IC50 in the assay with WSU-NHL (Homo sapiens) was 39 nM; in the assay with SU-DHL-6 cell (Homo sapiens), 7.8 nM.

`CCC(Nc1ncnc2[nH]cnc12)c1cc2scc(C)n2c(=O)c1-c1ccc(F)cc1` (centres unmarked) [Example 6, 7-(1-((9H-purin-6-yl)amino)propyl)-6-(4-fluorophenyl)-3-methyl-5H-thiazolo[3,2-a]pyridin-5-one] displayed an IC50 with SU-DHL-6 cell (Homo sapiens) of 60 nM.

`Cc1csc2cc(C(C)Nc3ncnc4[nH]cnc34)c(-c3ccccc3)c(=O)n12` (centres unmarked) [Example 1, 7-(1-(9H-purin-6-ylamino)ethyl)-3-methyl-6-phenyl-5H-thiazolo[3,2-a]pyridin-5-one] came in with an IC50 in the assay on SU-DHL-6 cell (Homo sapiens) of 36 nM.

`Cc1csc2cc(C(Nc3ncnc4[nH]cnc34)C3CC3)c(-c3cccc(F)c3)c(=O)n12` (centres unmarked) [Example 25, 7-(((9H-purin-6-yl)amino)(cyclopropyl)methyl)-6-(3-fluorophenyl)-3-methyl-5H-thiazolo[3,2-a]pyridin-5-one]: the values for the IC50 in the assay with WSU-NHL (Homo sapiens) and with SU-DHL-6 cell (Homo sapiens) were 47 nM and 3.6 nM, respectively.

`O=c1c(-c2cccc(F)c2)c(C(Nc2ncnc3[nH]cnc23)C2CC2)cc2scc(C(F)(F)F)n12` (centres unmarked) [Example 22, 7-(((9H-purin-6-yl)amino)(cyclopropyl)-methyl)-6-(3-fluorophenyl)-3-(trifluoromethyl)-5H-thiazolo[3,2-a]-pyridin-5-one]: the IC50 in the assay with SU-DHL-6 cell (Homo sapiens) was found to be 186 nM.

Take `Cc1csc2cc(C(C)Nc3ncnc4[nH]cnc34)c(-c3ccccc3F)c(=O)n12` (centres unmarked) [Example 7, 7-(1-((9H-purin-6-yl)amino)ethyl)-6-(2-fluorophenyl)-3-methyl-5H-thiazolo[3,2-a]pyridin-5-one]: in the assay on SU-DHL-6 cell (Homo sapiens), the IC50 stood at 13 nM.

Regarding `CCC(Nc1ncnc2[nH]cnc12)c1cc2scc(Cl)n2c(=O)c1-c1ccccc1` (centres unmarked) [Example 15, 7-(1-((9H-purin-6-yl)amino)propyl)-3-chloro-6-phenyl-5H-thiazolol[3,2-a]-pyridin-5-one], the 50% inhibitory concentration (IC50) in the assay on SU-DHL-6 cell (Homo sapiens) worked out at 44.8 nM.

On to `CC(Nc1ncnc2[nH]cnc12)c1cc2scc(Cl)n2c(=O)c1-c1cccc(F)c1` (centres unmarked) [Example 12, 7-(1-((9H-purin-6-yl)amino)ethyl)-3-chloro-6-(3-fluorophenyl)-5H-thiazolo[3,2-a]pyridin-5-one], for which the values for the IC50 in the assay with WSU-NHL (Homo sapiens) and in the assay on SU-DHL-6 cell (Homo sapiens) were 24 nM and 2.7 nM, respectively.

Compound `CCC(Nc1ncnc2[nH]cnc12)c1cc2scc(C(F)(F)F)n2c(=O)c1-c1ccccc1` (centres unmarked) [Example 19] showed an IC50 with SU-DHL-6 cell (Homo sapiens) of 17 nM.

In the assay on SU-DHL-6 cell (Homo sapiens), `Cc1csc2cc(C(C)Nc3ncnc4[nH]cnc34)c(-c3cccc(F)c3)c(=O)n12` (centres unmarked) [Example 8, 7-(1-((9H-purin-6-yl)amino)ethyl)-6-(3-fluorophenyl)-3-methyl-5H-thiazolo[3,2-a]pyridin-5-one] displayed an IC50 of 7.2 nM. This IC50 is about 2.4-fold lower than that of the compound before.

Take `CC(Nc1ncnc2[nH]cnc12)c1cc2scc(C(F)(F)F)n2c(=O)c1-c1ccccc1` (centres unmarked) [Example 18, 7-(1-((9H-purin-6-yl)amino)ethyl)-6-phenyl-3-(trifluoromethyl)-5H-thiazol-[3,2-a]pyridin-5-one]: the IC50 was 95 nM with WSU-NHL and 23 nM in the assay on SU-DHL-6 cell.

`Cc1csc2cc(C(Nc3ncnc4[nH]cnc34)C3CC3)c(-c3ccccc3)c(=O)n12` (centres unmarked) [Example 24, 7-(((9H-purin-6-yl)amino)(cyclopropyl)methyl)-3-methyl-6-phenyl-5H-thiazolo[3,2-a]pyridin-5-one]: the IC50 was found to be 16 nM in the assay with WSU-NHL (Homo sapiens) and 5.7 nM in the assay with SU-DHL-6 cell (Homo sapiens).

For `CC(Nc1ncnc2[nH]cnc12)c1cc2scc(C(F)(F)F)n2c(=O)c1-c1cccc(F)c1` (centres unmarked) [Example 16, 7-(1-((9H-purin-6-yl)amino)ethyl)-6-(3-fluorophenyl)-3-(trifluoromethyl)-5H-thiazolo[3,2-a]pyridin-5-one], the IC50 is 87 nM in the assay on WSU-NHL (Homo sapiens) and 4.4 nM in the assay with SU-DHL-6 cell (Homo sapiens).

`CCC(Nc1ncnc2[nH]cnc12)c1cc2scc(Cl)n2c(=O)c1-c1cccc(F)c1` (centres unmarked) [Example 13, 7-(1-((9H-purin-6-yl)amino)propyl)-3-chloro-6-(3-fluorophenyl)-5H-thiazolo[3,2-a]pyridin-5-one]: the concentration for half-maximal inhibition (IC50) stood at 36 nM in the assay on WSU-NHL (Homo sapiens) and 7.5 nM in the assay with SU-DHL-6 cell (Homo sapiens).

The compound `CCc1csc2cc(C(C)Nc3ncnc4[nH]cnc34)c(-c3ccccc3)c(=O)n12` (centres unmarked) [Example 9, 7-(1((9H-purin-6-yl)amino)ethyl)-3-ethyl-6-phenyl-5H-thiazolo[3,2-a]-pyridin-5-one] had a concentration for half-maximal inhibition (IC50) in the assay with SU-DHL-6 cell (Homo sapiens) of 103 nM.

For `O=c1c(-c2ccccc2)c(C(Nc2ncnc3[nH]cnc23)C2CC2)cc2scc(C(F)(F)F)n12` (centres unmarked) [Example 23, 7-(((9H-purin-6-yl)amino)(cyclopropyl)-methyl)-6-phenyl-3-(trifluoromethyl)-5H-thiazolo[3,2-a]pyridin-5-one], in the assay on SU-DHL-6 cell (Homo sapiens), the midpoint of inhibition, the IC50, lay at 27 nM. This IC50 lies about 3.8-fold lower than the previous one.

Usually IC50 stands for the midpoint of a concentration-inhibition curve. A lower IC50 goes with greater potency.
